Values after ≈ are worked out from the molar mass of the structure shown. Read-outs that look alike come from different tables or passages of the source.

One data set relates to Aspergillus fumigatus. Nature of the data set: MIC in serial dilution test, Aspergillus fumigatus. It is filed as cell-based. How it is done: (§1) The antimycotic activities of the compounds were measured by in vitro determination of the minimum inhibitory concentration (MIC) for yeasts, molds and dermatophytes.
(§2) 6 dermatophytes, 2 yeasts and 4 molds were used for testing with fungi, as follows:
Aspergillus fumigatus (Asp.fu.)
(§3) The minimum inhibitory concentration (MIC) was determined in serial dilution tests in test tubes. The volume of the liquid nutrient medium in each test tube was 4.5 ml.
(§4) The substances were dissolved in DMSO and diluted with sterile distilled water to 10 concentrations (100, 50, 25, 12.5, 6.25, 3.12, 1.56, 0.78, 0.39 and 0.19 μg/ml). 0.5 ml of each of these dilution steps was added to the liquid nutrient medium. Thus, a constant concentration of solvent in all the nutrient media was ensured, irrespective of the active compound concentration.
(§5) A comparison solution which contained only the solvent in appropriate concentration was included when carrying out each of the tests.
(§6) The individual strains were maintained on Sabouraud/beerwort agar slants and, before they were used in a test, they underwent a passage on a modified Sabouraud liquid nutrient medium. The strains were then harvested, washed and converted into a suspension of McFaerland 3 in the case of yeasts and molds and of McFaerland 4-5 in the case of dermatophytes.
(§7) The amount of material inoculated (inoculum) was 100 μl/test tube (inoculated densities: yeasts […] of the liquid nutrient medium was 6.0. After inoculation had taken place the fungi were incubated at 22° C. for 14 days.
(§8) The MIC was then determined. The concentration step at which growth was no longer visible on macroscopic inspection was used for the determination of the MIC. The comparison substance used was 1-(2-(2,4-dichlorophenyl)-2-(2,4-dichlorophenylmethoxy)ethyl)-1H-imidazoleas nitrate (compound A).

The next data set concerns Epidermophyton floccosum. Put plainly: MIC in serial dilution test, Epidermophyton floccosum. The conditions noted are these: 336 h, pH 6, Epidermophyton floccosum, pH 6.0, 22° C., 14 days, read-out: MIC values, Ep. flo. Format: cell-based. How it is done:
as §1, §2
Epidermophyton floccosum
as §3, §4, §5, §6, §7, §8

The next data set has as its system Mucor mucedo minus. Nature of the data set: MIC in serial dilution test, Mucor mucedo minus. Format: cell-based. The conditions noted are these: 336 h, pH 6, Mucor mucedo minus, pH 6.0, 22° C., 14 days, read-out: MIC values, Mu. mu-. How it is done: as §1, §2
Mucor mucedo minus (Mu.mu^-)
as §3, §4, §5, §6, §7, §8

A further data set relates to Microsporum gypseum. Nature of the data set: MIC in serial dilution test, Microsporum gypseum. Format: cell-based. Particulars: Nannizzia gypsea, 336 h. How it is done: as §1, §2
Microsporum gypseum (Mi.gyp.)
as §3, §4, §5, §6, §7, §8

In data set [1] the test system is Trichophyton mentagrophytes. Put plainly: MIC in serial dilution test, Trichophyton mentagrophytes. It is filed as cell-based. The conditions noted are these: 336 h, pH 6, Trichophyton mentagrophytes, pH 6.0, 22° C., 14 days, read-out: MIC values, Tri. me. How it is done:
as §1, §2
Trichophyton mentagrophytes
as §3, §4, §5, §6, §7, §8

Another data set has as its system Candida tropicalis. Nature of the data set: MIC in serial dilution test, Candida tropicalis. Format: cell-based. Particulars: 336 h. As to the method: as §1, §2
Candida tropicalis (C.trop.)
as §3, §4, §5, §6, §7, §8

The next data set relates to Absidia ramosa. Nature of the data set: MIC in serial dilution test, Absidia ramosa. It is filed as cell-based. Particulars: Lichtheimia ramosa, 336 h, pH 6, Absidia ramosa; pH 6.0, 22° C., 14 days; read-out: MIC values, Abs. ra. How it is done:
as §1, §2
Absidia ramosa (Abs.ra.)
as §3, §4, §5, §6, §7, §8

For a further data set, the system named is Candida albicans. Put plainly: MIC in serial dilution test, Candida albicans. Format: cell-based. Particulars: 336 h. As to the method:
as §1, §2
Candida albicans (C.alb.)
as §3, §4, §5, §6, §7, §8

For another data set, the system named is Mucor mucedo plus. Nature of the data set: MIC in serial dilution test, Mucor mucedo plus. It is filed as cell-based. Particulars: 336 h, pH 6, Mucor mucedo plus, pH 6.0, 22° C., 14 days, read-out: MIC values, Mu. mu+. As to the method:
as §1, §2
Mucor mucedo plus (Mu.mu^+)
as §3, §4, §5, §6, §7, §8

The subject of a further data set is Trichophyton rubrum. Nature of the data set: MIC in serial dilution test, Trichophyton rubrum. It is filed as cell-based. Particulars: 336 h, pH 6, Trichophyton rubrum, pH 6.0, 22° C., 14 days, read-out: MIC values, Tri. ru. How it is done: as §1, §2
Trichophyton rubrum (Tri.ru.)
as §3, §4, §5, §6, §7, §8

Another data set relates to Trichophyton verrucosum. Nature of the data set: MIC in serial dilution test, Trichophyton verrucosum. It is filed as cell-based. The conditions noted are these: 336 h, pH 6, Trichophyton verrucosum, pH 6.0, 22° C., 14 days, read-out: MIC values, Tri. ve. As to the method:
as §1, §2
Trichophyton verrucosum (Tri.ve.)
as §3, §4, §5, §6, §7, §8

Another data set has as its system Microsporum canis. Put plainly: MIC in serial dilution test, Microsporum canis. It is filed as cell-based. Particulars: 336 h, pH 6, Microsporum canis, pH 6.0, 22° C., 14 days, read-out: MIC values, Mi. can. As to the method:
as §1, §2
Microsporum canis (Mi.can.)
as §3, §4, §5, §6, §7, §8

Data set [2] deals with Salmonella typhimurium strains TA 1535, TA 1537, TA 1538, TA 98 and TA 100. Nature of the data set: Potential to cause gene mutations in Salmonella typhimurium. Format: cell-based. Particulars: with or without metabolic activator (S 9 mix); 10-1,000 and 3.3-333.3 μg/plate. As to the method: Compound No. 19 was investigated for its potential to cause gene mutations in five Salmonella typhimurium strains TA 1535, TA 1537, TA 1538, TA 98 and TA 100.
The following concentrations were tested, both with metabolic activator (S 9 mix) and without metabolic activator.

Data set [3] can be described thus: Determination of the lethal dose in rats, single oral administration. It is filed as in vivo. The conditions noted are these: for LD100: oral, administration once. As to the method: (§9) Determination of the lethal dose of 1-(2-(2,4-dichlorophenyl)-2-(3-(4-chlorophenylthio)propylamino)ethyl)-1H-imidazole dihydrochloride (compound No. 19) in mice and rats on administration once.
(§10) In each case, oral doses of 0, 500, 1,000 and 3,000 mg/kg of body weight were administered to four groups of female and male animals.

The nature of data set [4]: Determination of the LD50 in rats by i.v. administration. It is filed as in vivo. Particulars: 12.5-100 mg/kg. As to the method: (§11) Determination of the LD50 of 1-(2-(2,4-di-chlorophenyl)-2-(3-(4-chlorophenylthio)propylamino)-ethyl)-1H-imidazole dihydrochloride (compound No. 19) in mice and rats by i.v. administration. In each case, 0 (0.9% NaCl solution), 12.5, 25.0, 50.0 and 100 mg/kg of body weight were injected i.v. into 5 groups of female and male animals.

Data set [5] can be described thus: Determination of the lethal dose in mice, single oral administration. Format: in vivo. Particulars: for LD100: oral, administration once. How it is done:
as §9, §10

A short description of data set [6]: Determination of the LD50 in mice by i.v. administration. It is filed as in vivo. The conditions noted are these: 12.5-100 mg/kg. As to the method: as §11
Where [7] appears, read: Microsporum gypseum, pH 6.0, 22° C., 14 days, read-out: MIC values, Mi. gyp.
[8] abbreviates: pH 6, Candida tropicalis, pH 6.0, 22° C., 14 days, read-out: MIC values, C. trop.
The mark [9] stands for this setting: pH 6.0, 22° C., 14 days, read-out: MIC values, C. alb.
The mark [10] stands for this setting: oral, 500, 1,000 and 3,000 mg/kg.

As for `Clc1ccc(SCCCNC(Cn2ccnc2)c2ccc(Br)cc2)cc1` (centres unmarked) [compound 11], in the data set with Aspergillus fumigatus (20160 min, pH 6), the “MIC values, Asp. fu.” value is reported as 6,25 μg/ml.

Regarding `Clc1ccc(SCCNC(Cn2ccnc2)c2ccc(-c3ccccc3)cc2)cc1` (centres unmarked) [compound 14], the MIC in the data set with Epidermophyton floccosum amounted to 0.78 µg/mL (≈ 1.8 µM); with Mucor mucedo minus it was 6.25 µg/mL (≈ 14.4 µM); in the data set on Microsporum gypseum (setting [7]), 3.12 µg/mL (≈ 7.19 µM); in data set [1] it was 0.78 µg/mL (≈ 1.8 µM); in the data set with Candida tropicalis (setting [8]), 12.5 µg/mL (≈ 28.8 µM); in the data set on Absidia ramosa, 50 µg/mL (≈ 115 µM). Besides, the MIC is 12.5 µg/mL (≈ 28.8 µM) with Candida albicans (setting [9]); 6.25 µg/mL with Mucor mucedo plus; 1.56 µg/mL (≈ 3.59 µM) in the data set with Trichophyton rubrum; 0.78 µg/mL (≈ 1.8 µM) in the data set with Trichophyton verrucosum; 6.25 µg/mL (≈ 14.4 µM) in the data set with Microsporum canis. The “MIC values, Asp. fu.” value with Aspergillus fumigatus (20160 min, pH 6) is on record as 3,12 μg/ml.

For `COc1ccc(SCCNC(Cn2ccnc2)c2ccc(Cl)cc2Cl)cc1` (centres unmarked) [compound 5], the “MIC values, Asp. fu.” value with Aspergillus fumigatus (20160 min, pH 6) is 12,5 μg/ml.

Regarding `Clc1ccc(SCCCNC(Cn2ccnc2)c2cccs2)cc1` (centres unmarked) [compound 31], the MIC was found to be 3.12 µg/mL (≈ 8.25 µM) in the data set with Epidermophyton floccosum; 12.5 µg/mL (≈ 33.1 µM) with Mucor mucedo minus; 6.25 µg/mL (≈ 16.5 µM) in the data set with Microsporum gypseum (setting [7]); 12.5 µg/mL (≈ 33.1 µM) in data set [1]; 25 µg/mL (≈ 66.1 µM) in the data set with Candida tropicalis (setting [8]); 2.5 µg/mL (≈ 6.61 µM) with Absidia ramosa. Further, the MIC was 12.5 µg/mL (≈ 33.1 µM) with Candida albicans (setting [9]); 12.5 µg/mL in the data set on Mucor mucedo plus; 3.12 µg/mL (≈ 8.25 µM) with Trichophyton rubrum; 3.12 µg/mL (≈ 8.25 µM) with Trichophyton verrucosum; 25 µg/mL (≈ 66.1 µM) in the data set with Microsporum canis. For the same molecule, the “MIC values, Asp. fu.” value in the data set on Aspergillus fumigatus (20160 min, pH 6) is 12,5 μg/ml.

Consider `Clc1ccc(C(Cn2ccnc2)NCCSc2ccc3ccccc3c2)c(Cl)c1` (centres unmarked) [compound 6], for which, in the data set with Mucor mucedo minus, the MIC stood at 12.5 µg/mL (≈ 28.3 µM).

Turning to `Clc1ccc(SCCCNC(Cn2ccnc2)c2ccc(Cl)cc2Cl)cc1` (centres unmarked) [compound 20, 1-(2-(2,4-Dichlorophenyl)-2-(3-(4-chlorophenylthio)-propylamino)ethyl)-1H-imidazole], the “MIC values, Asp. fu.” value in the data set with Aspergillus fumigatus (20160 min, pH 6) is given as 3,12 μg/ml.

Regarding `Cc1ccc(SCCCNC(Cn2ccnc2)c2ccc(Cl)cc2Cl)cc1` (centres unmarked) [compound 17], in the data set on Aspergillus fumigatus (20160 min, pH 6), the “MIC values, Asp. fu.” value is reported as 0,78 μg/ml.

Regarding `Clc1ccc(COC(Cn2ccnc2)c2ccc(Cl)cc2Cl)c(Cl)c1` (centres unmarked) [A, 1-(2-(2,4-dichlorophenyl)-2-(2,4-dichlorophenylmethoxy)ethyl)-1H-imidazole, reference compound], the MIC in the data set on Microsporum gypseum (pH 6, read-out: MIC values, Mi. gyp) was 3.12 µg/mL (≈ 7.5 µM); in the data set with Candida tropicalis (pH 6, read-out: MIC values, C. trop) it was 12.5 µg/mL (≈ 30 µM); with Candida albicans (pH 6, read-out: MIC values, C. alb), 12.5 µg/mL (≈ 30 µM). For the same molecule, in the data set with Aspergillus fumigatus (Aspergillus fumigatus, pH 6.0, 22° C., 14 days), the “MIC values, Asp. fu.” value is 3,12 μg/ml.

Take `Clc1ccc(C(Cn2ccnc2)NCCCSc2ccc3ccccc3c2)c(Cl)c1` (centres unmarked) [compound 27]: in the data set on Aspergillus fumigatus (20160 min, pH 6), the “MIC values, Asp. fu.” value is reported as 0,78 μg/ml.

For `Cl.Cl.Clc1ccc(SCCCNC(Cn2ccnc2)c2ccc(Cl)cc2Cl)cc1` (centres unmarked) [Compound No. 19, 1-(2-(2,4-dichlorophenyl)-2-(3-(4-chlorophenylthio)propylamino)ethyl)-1H-imidazole dihydrochloride], the “MIC values, Asp. fu.” value against Aspergillus fumigatus (20160 min, pH 6) is 0,78 μg/ml. For the same molecule, the mutagenic activity result in [2] is listed as “No mutagenic activity whatever was observed”. In addition, the LD100 is on record as greater than 500 mg/kg in data set [3] (female), > 1,000 mg/kg in data set [3] (male), > 1,000 mg/kg in [5] (female) and greater than 500 mg/kg in data set [5] (male). The clinical signs entry is on record as “Inactivity, ruffled fur, convulsions” in [3] (setting [10]); “Inactivity, necrotic tail, convulsions” in data set [4]; “Inactivity, convulsions” in data set [5] (setting [10]); “Inactivity, necrotic tail” in data set [6].

For the origin of these results see patent publication US4925855A, “Imidazole derivatives and antimycotics containing them” (CL Pharma Aktiengesellschaft, priority 1986, dated 1990).
